This note sets out measurements from patent publication US20240246954A1, “COMPOSITIONS AND METHODS FOR INHIBITING KRAS” (TheRas, Inc., priority 2021, published 2024).

In experiment [1] the target is T1, Avi-KRAS G12D/Q25A (1-169) GppNHp/3×FLAG-PI3KCA (157-299) (Homo sapiens, UniProt P01116, G12D/Q25A).
T1 construct: Avi-KRAS G12D/Q25A (1-169) GppNHp
Kind of experiment: HTRF PI3KCA-KRAS G12D/Q25A-GppNHp disruption assay. The format is biochemical. To be noted: 1 h incubation. How it is done:
(§1) The HTRF assay employed the following protocol:
(§2) Compounds were dispensed in assay plate (384-well, Grenier Bione #784075) using Echo (model 555) with dose response settings: 200 nL final volume, titration from 100 μM as a 10-point dilution series. Protein mix was prepared in assay buffer, and dispensed on plates, 10 μL per well, then incubated for 1 h at room temperature, with 700 rpm shaking. Reagents mix was prepared and dispensed on plates, 10 μL per well, then incubated for 1 h at room temperature, with 700 rpm shaking.
(§3) Plates were analyzed on an Envision plate reader using the following setting: Excitation 320 nm, Bandwidth […]; Emission 615 nm, Bandwidth […], Gain 100%, Flashes 100, Lag 60 μs. Data was reported as percentage of activity, with DMSO as 100%. Data was plotted and analyzed using Prism 8.
(TR-FRET usually uses a lanthanide donor and a delayed reading to cut background.)

The target of experiment [2] is T2, Avi-KRAS G12D (1-169) GppNHp/RAF1 RBD-3×FLAG (52-151) (Homo sapiens, UniProt P01116, G12D).
T2 construct: Avi-KRAS G12D (1-169) GppNHp
T2 sequence (P01116 1-169 isoform P01116-2 G12D limits assumed): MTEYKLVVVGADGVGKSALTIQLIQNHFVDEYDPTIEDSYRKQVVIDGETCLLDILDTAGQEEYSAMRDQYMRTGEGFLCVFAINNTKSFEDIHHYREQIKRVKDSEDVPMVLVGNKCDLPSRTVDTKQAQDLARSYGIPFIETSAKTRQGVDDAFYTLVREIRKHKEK
Kind of experiment: HTRF Raf1-KRAS G12D-GppNHp disruption assay. The experiment is classed as biochemical. To be noted: 1 h incubation. The procedure: as §1, §2, §3

pIC50: −log10 of the molar value.

T1 sequence (P01116 1-169 isoform P01116-2 G12D/Q25A limits assumed): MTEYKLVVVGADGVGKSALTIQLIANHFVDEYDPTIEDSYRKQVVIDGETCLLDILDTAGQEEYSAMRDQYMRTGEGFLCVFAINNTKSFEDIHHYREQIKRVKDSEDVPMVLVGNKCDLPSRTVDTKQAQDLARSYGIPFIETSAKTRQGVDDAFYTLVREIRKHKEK

For orientation: pIC50 means the negative decadic logarithm of the IC50, by convention in mol/L. A low value points to a high IC50. In the case of `Nc1nc2c(-c3c(Cl)cc4c(N5CC6CNC(C6)C5)ncnc4c3F)ccc(F)c2s1` (stereo not drawn) [Compound 243], the negative-log IC50 (pIC50) in experiment [1] and in experiment [2] was 4.52 to 5.00 each time. Take `C[C@@H]1CN(c2nc(OC[C@@]34CCCN3C[C@@H](F)C4)nc3c(F)c(-c4ccc(F)c5sc(N)nc45)c(C(F)(F)F)cc23)[C@@H](C)CN1` [Compound 224]: the pIC50 in experiment [1] and in experiment [2] was 4.52 to 5.00 throughout. For `C[C@@H]1CN(c2nc(OC[C@]34CCCN3C[C@H](F)C4)nc3c(F)c(-c4ccc(F)c5sc(N)nc45)c(C(F)(F)F)cc23)CCN1` [Compound 210], the pIC50 in experiment [1] is 4.52 to 5.00; in experiment [2], 5.00 to 6.00. `CN(c1nc(OCC23CCCN2CCC3)nc2c(F)c(-c3ccc(F)c4sc(N)nc34)c(Cl)cc12)C1CN(C(N)=O)C1` [Compound 182]: the pIC50 in experiment [1] was 4.52 to 5.00; in experiment [2] it was 5.00 to 6.00.

As to `CN1CCC[C@H]1COc1nc(N2CCNCC2)c2cc(C3(C#N)CCC3)c(-c3ccc(F)c4sc(N)nc34)c(F)c2n1` [Compound 203, 1-[7-(2-amino-7-fluoro-1,3-benzothiazol-4-yl)-8-fluoro-2-[[(2S)-1-methylpyrrolidin-2-yl]methoxy]-4-piperazin-1-yl-quinazolin-6-yl]cyclobutanecarbonitrile], the pIC50 in experiment [1] and in experiment [2] was 4.52 to 5.00 throughout. `CN1CCC[C@H]1COc1nc(N2CC3(CCN3)C2)c2cc(Cl)c(-c3ccc(F)c4sc(N)nc34)c(F)c2n1` [Compound 96]: the negative logarithm of the IC50 (pIC50) in experiment [1] and in experiment [2] was 4.52 to 5.00 each time.

On to `NC(=O)N1CCN(c2nc(OCC34CCCN3CCC4)nc3c(F)c(-c4ccc(F)c5sc(N)nc45)c(C(F)(F)F)cc23)CC1` [Compound 165, 4-(7-(2-amino-7-fluorobenzo[d]thiazol-4-yl)-8-fluoro-2-((tetrahydro-1H-pyrrolizin-7a(5H)-yl)methoxy)-6-(trifluoromethyl)quinazolin-4-yl)piperazine-1-carboxamide], for which the pIC50 in experiment [1] and in experiment [2] was 4.52 to 5.00 throughout. As for `CC(=O)NCCNc1nc(OC[C@@H]2CCCN2C)nc2c(F)c(-c3ccc(F)c4sc(N)nc34)c(Cl)cc12` [Compound 76], the negative logarithm of the IC50 (pIC50) in experiment [1] and in experiment [2] was 4.52 to 5.00 throughout. `CN1CCC[C@H]1COc1nc(NC2CCNC2)c2cc(Cl)c(-c3ccc(F)c4sc(N)nc34)c(F)c2n1` (stereo partly drawn) [Compound 98]: the pIC50 in experiment [1] and in experiment [2] was 5.00 to 6.00 each time.

Turning to `COc1cc2c(N3C[C@@H](C)NC[C@@H]3C)nc(OC[C@@]34CCCN3C[C@H](F)C4)nc2c(F)c1-c1ccc(F)c2sc(N)nc12` [Compound 281, 4-(4-((2S,5R)-2,5-dimethylpiperazin-1-yl)-8-fluoro-2-(((2R,7aS)-2-fluorotetrahydro-1H-pyrrolizin-7a(5H)-yl)methoxy)-6-methoxyquinazolin-7-yl)-7-fluorobenzo[d]thiazol-2-amine], the pIC50 in experiment [1] and in experiment [2] was 4.52 to 5.00 each time. As for `C[C@@H]1CNCCN1c1nc(OC[C@]23CCCN2C[C@H](F)C3)nc2c(F)c(-c3ccc(F)c4sc(N)nc34)c(C(F)(F)F)cc12` [Compound 209], the figures for the pIC50 in experiment [1] and in experiment [2] were 5.00 to 6.00 and 6.00 to 7.00, respectively. The like results for `CNCCNc1nc(OC[C@@H]2CCCN2C)nc2c(F)c(-c3ccc(F)c4sc(N)nc34)c(Cl)cc12` [Compound 70] were, in that order, 4.52 to 5.00 and 5.00 to 6.00. For `C#Cc1cc2c(N3CCNCC3)ncnc2c(F)c1-c1ccc(F)c2sc(N)nc12` [Compound 66, 4-(6-ethynyl-8-fluoro-4-(piperazin-1-yl)quinazolin-7-yl)-7-fluorobenzo[d]thiazol-2-amine], in that order: 4.52 to 5.00 and 4.52 to 5.00. For `NC(=O)N1CCN(c2nc(OCC34CCCN3CCC4)nc3c(F)c(-c4ccc(F)c5sc(N)nc45)c(Cl)cc23)CC1` [Compound 162], in that order: 4.52 to 5.00 and 4.52 to 5.00. Regarding `N#CCc1cc2c(N3CCN(C(=O)CN)CC3)ncnc2c(F)c1-c1ccc(F)c2sc(N)nc12` [Compound 131], the pIC50 in experiment [1] and in experiment [2] was 4.52 to 5.00 in each case.

As to `Fc1c(-c2ccc(F)c3scnc23)c(C(F)(F)F)cc2c(N3CC4CCC(C3)N4)nc(OCC34CCCN3CCC4)nc12` [Compound 375], the pIC50 in experiment [1] and in experiment [2] was 4.52 to 5.00 throughout. Consider `C[C@@H]1CN(c2nc(OC[C@@]34CCCN3C[C@@H](F)C4)nc3c(F)c(-c4ccc(F)c5sc(N)nc45)c(C(F)(F)F)cc23)C[C@H](C)N1` [Compound 229], for which the negative logarithm of the IC50 (pIC50) in experiment [1] and in experiment [2] was 4.52 to 5.00 in each case. Regarding `CN1CCC[C@H]1COc1nc(N2C[C@H]3NCC[C@H]32)c2cc(Cl)c(-c3ccc(F)c4sc(N)nc34)c(F)c2n1` [Compound 95], the pIC50 in experiment [1] and in experiment [2] was 4.52 to 5.00 throughout. `Nc1nc2c(-c3c(Cl)cc4c(N5CCCNCC5)ncnc4c3F)ccc(F)c2s1` [Compound 242]: the pIC50 in experiment [1] and in experiment [2] was 4.52 to 5.00 throughout. For the compound `CCN(c1nc(OC[C@@H]2CCCN2C)nc2c(F)c(-c3ccc(F)c4sc(N)nc34)c(Cl)cc12)C1CNC1` [Compound 196], the pIC50 in experiment [1] and in experiment [2] was 4.52 to 5.00 throughout. `CCN(c1nc(OC[C@@H]2CCCN2C)nc2c(F)c(-c3ccc(F)c4sc(N)nc34)c(C(F)(F)F)cc12)C1CNC1` [Compound 170]: the pIC50 in experiment [1] and in experiment [2] was 4.52 to 5.00 each time. For the compound `Nc1nc2c(-c3c(C(F)(F)F)cc4c(N5CCNCC5)nc(OCC56CCCN5CC(F)(F)C6)nc4c3F)ccc(F)c2s1` (stereo not drawn) [Compound 211], the pIC50 is 4.52 to 5.00 in experiment [1] and 5.00 to 6.00 in experiment [2]. For the compound `Nc1nc2c(-c3c(OC(F)(F)F)cc4c(N5CC6CCC(C5)N6)nc(OCC56CCCN5CCC6)nc4c3F)ccc(F)c2s1` [Compound 231], the negative-log IC50 (pIC50) in experiment [1] and in experiment [2] was 5.00 to 6.00 throughout. As to `CN1CCC[C@H]1COc1nc(N2CCNCC2)c2cc(-c3ccccc3)c(-c3ccc(F)c4sc(N)nc34)c(F)c2n1` [Compound 145], the pIC50 in experiment [1] and in experiment [2] was 4.52 to 5.00 each time. For the compound `Nc1nc2c(-c3c(C(F)(F)F)cc4c(N5CC6CC5CN6)nc(OC[C@@]56CCCN5C[C@H](F)C6)nc4c3F)ccc(F)c2s1` (stereo partly drawn) [Compound 239], the pIC50 in experiment [1] and in experiment [2] was 5.00 to 6.00 in each case. Regarding `C[C@H]1CNCCN1c1nc(OC[C@@H]2CCCN2C)nc2c(F)c(-c3ccc(F)c4sc(N)nc34)c(Cl)cc12` [Compound 78], the pIC50 in experiment [1] and in experiment [2] was 4.52 to 5.00 in each case. Regarding `CN(c1nc(OCC23CCCN2CCC3)nc2c(F)c(-c3ccc(F)c4sc(N)nc34)c(C(F)(F)F)cc12)[C@H]1CC[C@@H](N)CC1` (atropisomer, axis not shown) [Compound 294], the pIC50 in experiment [1] was 5.00 to 6.00; in experiment [2] it was 6.00 to 7.00. Regarding `CN1CCC[C@H]1COc1nc(N2CCNCC2)c2cc(C(F)F)c(-c3ccc(F)c4sc(N)nc34)c(F)c2n1` [Compound 217, 4-(6-(difluoromethyl)-8-fluoro-2-(((S)-1-methylpyrrolidin-2-yl)methoxy)-4-(piperazin-1-yl)quinazolin-7-yl)-7-fluorobenzo[d]thiazol-2-amine], the pIC50 in experiment [1] and in experiment [2] was 5.00 to 6.00 throughout. As to `CN1CCC[C@H]1COc1nc(N2CCN(C(=O)CN)CC2)c2cc(C(F)(F)F)c(-c3ccc(F)c4sc(N)nc34)c(F)c2n1` [Compound 116], the pIC50 in experiment [1] and in experiment [2] was 5.00 to 6.00 in each case. `CN(c1nc(OC[C@@H]2C[C@@H](F)CN2C)nc2c(F)c(-c3ccc(F)c4sc(N)nc34)c(-c3ccoc3)cc12)C1CN(C(=O)CN)C1` [Compound 150]: the pIC50 in experiment [1] and in experiment [2] was 4.52 to 5.00 each time.

As to `NC(=O)N1CC(Nc2nc(OCC34CCCN3CCC4)nc3c(F)c(-c4ccc(F)c5sc(N)nc45)c(-c4ccoc4)cc23)C1` [Compound 167], the pIC50 in experiment [2] was 4.52 to 5.00.

`CN1CCC[C@H]1COc1nc(NC2CN(C(=O)CN)C2)c2cc(C(F)(F)F)c(-c3ccc(F)c4sc(N)nc34)c(F)c2n1` [Compound 130]: in experiment [2], the negative-log IC50 (pIC50) is 5.00 to 6.00. The same measure, in the same setting: as for `Nc1nc2c(-c3c(C(F)(F)F)cc4c(N5CCNCC5)nc(OC[C@@H]5CCCN5CC(F)F)nc4c3F)ccc(F)c2s1` [Compound 172], the figure is 4.52 to 5.00; as for `NCC(=O)N1CCN(c2nc(OC[C@@H]3CCCN3CC(F)F)nc3c(F)c(-c4ccc(F)c5sc(N)nc45)c(C(F)(F)F)cc23)CC1` [Compound 193], 4.52 to 5.00; as for `Nc1nc2c(-c3c(-c4ccoc4)cc4c(N5CC6CC(C5)N6)nc(OCC56CCCN5CCC6)nc4c3F)ccc(F)c2s1` [Compound 194], 5.00 to 6.00. In experiment [2], `Nc1nc2c(-c3c(C(F)(F)F)cc4c(N5CCNCC5)nc(OC[C@]56CCCN5C[C@H](F)C6)nc4c3F)ccc(F)c2s1` [Compound 169] had a pIC50 of 4.52 to 5.00. The same measure, in the same setting: as for `CN(c1nc(OCC23CCCN2CCC3)nc2c(F)c(-c3ccc(F)c4sc(N)nc34)c(C(F)(F)F)cc12)C1CN(C(N)=O)C1` [Compound 173], the figure is 5.00 to 6.00; as for `CN(c1nc(OCC23CCCN2CCC3)nc2c(F)c(-c3ccc(F)c4sc(N)nc34)c(C(F)(F)F)cc12)C1CN(C(=O)CN)C1` [Compound 171], 5.00 to 6.00; as for `Nc1nc2c(-c3c(C(F)(F)F)cc4c(N5CCNCC5)nc(OC[C@@H]5CCCN5CCF)nc4c3F)ccc(F)c2s1` [Compound 168], 4.52 to 5.00.
